Reference: patent US10759809B2 (priority 2017, dated 2020)
Where a name gives a salt, the structure may show the parent alone.

What was measured:
SD rat = assay: animal or person; type: in vivo; settings: po, 1 h
Kunming mice = assay: animal or person; type: in vivo; settings: Mus musculus, po, 1 h
Mice = settings: both, mouse, in vivo
SD rats = settings: male, rat, in vivo

Molecule [2H]C1C([2H])[C@]23C[C@H]([C@](C)(O)C(C)(C)C)[C@@]1(OC)C1Oc4c(O)ccc5c4[C@@]12CCN(CC1CC1)[C@@H]3C5 (stereo partly drawn) [I7•HCl, (2S)-2-[(5R, 6R, 7R, 14S)—N-(cyclopropyl-methyl)-4,5-epoxy-6,14-dideuteroethano-3-hydroxy-6-methoxymorphinan-7-yl]-3,3-dimethylbutan-2-ol] has an ED50 (SD rat) of 38 ± 19.7 mg/kg and an ED50 (Kunming mice) of 12 ± 11.7 mg/kg.
For [2H]C([2H])(C1CC1)N1CC[C@]23c4c5ccc(O)c4O[C@H]2[C@@]2(OC)CC[C@@]3(C[C@@H]2[C@](C)(O)C(C)(C)C)[C@H]1C5 [I1•HCl, (2S)-2-[(5R, 6R, 7R, 14S)—N-(cyclopropyl-dideuteromethyl)-4,5-epoxy-6, 14-ethano-3-hydroxy-6-methoxymorphinan-7-yl]-3,3-dimethylbutan-2-ol], the “Inhibition of activated carbon excretion” value (Mice) was 36.31 ± 2.78%, the “Residence time in drug-side box (Mean ± S, s)” value (SD rats) was 149.19 ± 36.88 s and the ED50 (SD rat) was 19 ± 7.29 mg/kg. It also gave an ED50 (Kunming mice) of 6.54 ± 2.96 mg/kg.
CO[C@]12CC[C@@]3(C[C@@H]1[C@](C)(O)C(C)(C)C)[C@H]1Cc4ccc(O)c5c4[C@@]3(CCN1CC1CC1)[C@H]2O5 [buprenorphine•HCl, (2S)-2-[(5R, 6R, 7R, 14S)—N-cyclopropylmethyl-4,5-epoxy-6, 14-ethano-3-hydroxy-6-methoxymorphinan-7-yl]-3,3-di methylbutan-2-ol, reference compound] was tested, and the “Inhibition of activated carbon excretion” value (Mice) was 63.87 ± 2.16%, the “Residence time in drug-side box (Mean ± S, s)” value (SD rats) was 277.56 ± 164.99 s and the ED50 (SD rat) was over 50 mg/kg. The ED50 (Kunming mice) was 11.8 ± 11.7 mg/kg.
For [2H]c1c([2H])c2c3c(c1O)O[C@H]1[C@@]4(OC)CC[C@@]5(C[C@@H]4[C@](C)(O)C(C)(C)C)[C@@H](C2)N(C([2H])([2H])C2CC2)CC[C@]315 [I6•HCl, (2S)-2-[(5R, 6R, 7R, 14S)-1,2-dideutero-N-(cyclopropyl-dideuteromethyl)-4,5-epoxy-6,14-ethano-3-hydroxy-6-methoxymorphinan-7-yl]-3,3-dimethylbutan-2-ol], the ED50 (SD rat) was 18 ± 8.56 mg/kg and the ED50 (Kunming mice) was 5.83 ± 2.23 mg/kg.
Molecule [2H]c1c([2H])c2c3c(c1O)O[C@H]1[C@@]4(OC)CC[C@@]5(C[C@@H]4[C@](C)(O)C(C)(C)C)[C@@H](C2)N(CC2CC2)CC[C@]315 [I5•HCl, (2S)-2-[(5R, 6R, 7R, 14S)-1,2-dideutero-N-cyclopropylmethyl-4,5-epoxy-6,14-ethano-3-hydroxy-6-methoxymorphinan-7-yl]-3,3-dimethylbutan-2-ol] has an ED50 (SD rat) of 31.1 ± 10.9 mg/kg and an ED50 (Kunming mice) of 8.02 ± 11.3 mg/kg.
